These results are taken from patent US20140106421A1, “Methods Of Producing Carboxylic Acids And/Or Alcohols” (Industrial Technology Research Institute, priority 2012, published 2014).

Data set [1] relates to C. tyrobutyricum ATCC25755. The data set is described as follows: Free-cell culture with organic solution on top of the culture medium (Example 2). The note with it: free cells, 24 hours at 37° C. It counts as cell-based. The method, then: The culture medium was then inoculated with 0.08 ml of bacterial stock comprising C. tyrobutyricum ATCC25755. The initial optical density (OD) measured at a wavelength of 600 nm was 0.2. After inoculation, 0.8 ml of an organic solution (as listed in the Table 4 below) was added to the top of the culture medium. The bacteria was then cultured in Tecan infinite 200 Pro Multimode Microplate Readers (Tecan Group Ltd., Switzerland) for 24 hours at 37° C., with shaking once every 30 minutes.

Data set [2] relates to PVA-immobilized clostridium tyrobutyricum. The data set is described as follows: 2-liter tank fermentor extractive fermentation (Example 5). The class given is cell-based. The note with it: 37° C., 40 hours. From the text:
A 2-liter tank fermentor 500 as illustrated in FIG. 5 was used in this Example. […] The medium was then purged with N2 to reach anaerobiosis. The pH of the basal medium was further adjusted to 6.0 with 2 N NaOH. Subsequently, the medium was inoculated with about 100 g of PVA-immobilized C. tyrobutyricum cell beads prepared as described above. An extractive fermentation-column reactor similar to the one shown in FIG. 5 was used in this example. The lower region of the reactor was filled with 700 ml of the basal medium containing glucose as the substrate and inoculated with about 70 ml of PVA-immobilized clostridium tyrobutyricum. In addition, the upper region of the reactor was filled with either 700 ml of 1 M TOPO in oleyl alcohol or 700 ml of oleyl alcohol without TOPO. The fermentation was conducted at 37° C. for 40 hours, and the pH of the fermentation medium was not controlled in this example.

Data set [3] in a line: Extraction of butyric acid from CGM medium with TOA in oleyl alcohol (Example 1.1). The class given is physicochemical. The note with it: CGM medium with 5% butyric acid, pH 4, 37° C. The method, then:
50 ml of CGM culture medium (basal medium, see the table provided immediately below) containing 5% of butyric acid (the pH of the CGM medium decreased to 4 after the addition of the butyric acid) was mixed with 5 ml of 0.7 M, 1 M, […] of trioctylamine (C24H51N, CAS No. 1116-76-3, abbreviation: TOA) in oleyl alcohol at 37° C.
The concentrations of butyric acid in the CGM culture medium (i.e., the aqueous phase) and in the trioctylamine solution (i.e., the organic phase) were measured every 12 hours by high performance liquid chromatography (HPLC).
The butyric acid distribution ratio (D) was calculated by dividing the concentration of butyric acid in the organic medium by the concentration of butyric acid in the aqueous medium: […]

Data set [4] is described as follows: Extraction of butyric acid from CGM medium with TOPO in oleyl alcohol (Example 1.2). The class given is physicochemical. To be noted: 24 hours, 37° C. Here is the method: The butyric acid distribution ratio (D) was calculated by dividing the concentration of butyric acid in the organic medium by the concentration of butyric acid in the aqueous medium:
[…] The pH of the culture medium was further adjusted to a value ranging from 4 to 6 with 4 N NaOH and 4 N HCl.
After 24 hours, the concentrations of butyric acid in the CGM culture medium (the aqueous phase) and in the TOPO solution (the organic phase) were measured by HPLC.

Data set [5] concerns PVA-immobilized clostridium tyrobutyricum. The data set is described as follows: Extractive fermentation-column reactor, 1 M TOPO or TBP in oleyl alcohol (Example 4C). The class given is cell-based. The note with it: 1 M extractant in oleyl alcohol as organic phase; 37° C., 100 hours. The method, then:
In addition, the upper region of the reactor was filled with either 40 ml of 1 M TOPO in oleyl alcohol or 40 ml 1 M TBP in oleyl alcohol. The fermentation was conducted at 37° C. for 100 hours.

As for `CCCCCCCC/C=C\CCCCCCCCO` [Oleyl alcohol only, oleyl alcohol], in data set [1], the “Glucose consumption rate %” value stood at 80.7%. In addition, the “Bacterial Growth rate (OD/h)” value in data set [1] (OD at 600 nm) worked out at 0.08 OD/h. Also, in data set [2], the “% of glucose consumed” value was determined as 100% and the “Distribution ratio of butryic acid” value is on record as 0.86.
`CCCCCCCCN(CCCCCCCC)CCCCCCCC` [TOA, trioctylamine]: the “Butyric acid distribution ratio (D)” value in data set [3] (0.7M TOA in oleyl alcohol) was 7.38; in data set [3] (1M TOA in oleyl alcohol) it was 10.21; in data set [3] (1.4M TOA in oleyl alcohol), 13.82.
Consider `CCCCCCCCP(=O)(CCCCCCCC)CCCCCCCC` [TOPO, trioctylphosphine oxide], for which the “butyric acid distribution ratio” value in data set [4] (TOPO 0.1 M in oleyl alcohol, butyric acid 1%, pH 4) was 1.45; in data set [4] (TOPO 0.1 M in oleyl alcohol, butyric acid 1%, pH 5), 0.31; in data set [4] (TOPO 0.1 M in oleyl alcohol, butyric acid 1%, pH 6), 0.00; in data set [4] (TOPO 0.1 M in oleyl alcohol, butyric acid 2%, pH 4), 2.12; in data set [4] (TOPO 0.1 M in oleyl alcohol, butyric acid 2%, pH 5), 0.37; in data set [4] (TOPO 0.1 M in oleyl alcohol, butyric acid 2%, pH 6) it was 0.05. The “butyric acid distribution ratio” value in data set [4] (TOPO 0.1 M in oleyl alcohol, butyric acid 3%, pH 4) came to 2.17; in data set [4] (TOPO 0.1 M in oleyl alcohol, butyric acid 3%, pH 5), 0.26; in data set [4] (TOPO 0.1 M in oleyl alcohol, butyric acid 3%, pH 6), 0.00; in data set [4] (TOPO 0.5 M in oleyl alcohol, butyric acid 1%, pH 4), 1.91; in data set [4] (TOPO 0.5 M in oleyl alcohol, butyric acid 1%, pH 5), 0.36; in data set [4] (TOPO 0.5 M in oleyl alcohol, butyric acid 1%, pH 6), 0.03. Also, the “butyric acid distribution ratio” value in data set [4] (TOPO 0.5 M in oleyl alcohol, butyric acid 2%, pH 4) was 2.82; in data set [4] (TOPO 0.5 M in oleyl alcohol, butyric acid 2%, pH 5), 0.37; in data set [4] (TOPO 0.5 M in oleyl alcohol, butyric acid 2%, pH 6), 0.06; in data set [4] (TOPO 0.5 M in oleyl alcohol, butyric acid 3%, pH 4) it was 2.90; in data set [4] (TOPO 0.5 M in oleyl alcohol, butyric acid 3%, pH 5), 0.35; in data set [4] (TOPO 0.5 M in oleyl alcohol, butyric acid 3%, pH 6) it was 0.04. Besides, the “butyric acid distribution ratio” value in data set [4] (TOPO 1 M in oleyl alcohol, butyric acid 1%, pH 4) was 2.67; in data set [4] (TOPO 1 M in oleyl alcohol, butyric acid 1%, pH 5), 0.42; in data set [4] (TOPO 1 M in oleyl alcohol, butyric acid 1%, pH 6), 0.06; in data set [4] (TOPO 1 M in oleyl alcohol, butyric acid 2%, pH 4) it was 3.88; in data set [4] (TOPO 1 M in oleyl alcohol, butyric acid 2%, pH 5) it was 0.43; in data set [4] (TOPO 1 M in oleyl alcohol, butyric acid 2%, pH 6), 0.04. In addition, the “butyric acid distribution ratio” value in data set [4] (TOPO 1 M in oleyl alcohol, butyric acid 3%, pH 4) was 4.20; in data set [4] (TOPO 1 M in oleyl alcohol, butyric acid 3%, pH 5) it was 0.35; in data set [4] (TOPO 1 M in oleyl alcohol, butyric acid 3%, pH 6) it was 0.04. For the same compound, the “Cells growth (Δ OD600)” value in data set [5] came out at 6.0.
